Publication PMC9579956 (RSC Medicinal Chemistry, 2022)

molecular target: Mycobacterium thermoresistible (Mtr) LpqY (Mycolicibacterium thermoresistibile, UniProt G7CES0); type: binding; details: compound 100 μM, LpqY 500 nM, 10% DMSO, duplicate
Sequence (G7CES0 29-471): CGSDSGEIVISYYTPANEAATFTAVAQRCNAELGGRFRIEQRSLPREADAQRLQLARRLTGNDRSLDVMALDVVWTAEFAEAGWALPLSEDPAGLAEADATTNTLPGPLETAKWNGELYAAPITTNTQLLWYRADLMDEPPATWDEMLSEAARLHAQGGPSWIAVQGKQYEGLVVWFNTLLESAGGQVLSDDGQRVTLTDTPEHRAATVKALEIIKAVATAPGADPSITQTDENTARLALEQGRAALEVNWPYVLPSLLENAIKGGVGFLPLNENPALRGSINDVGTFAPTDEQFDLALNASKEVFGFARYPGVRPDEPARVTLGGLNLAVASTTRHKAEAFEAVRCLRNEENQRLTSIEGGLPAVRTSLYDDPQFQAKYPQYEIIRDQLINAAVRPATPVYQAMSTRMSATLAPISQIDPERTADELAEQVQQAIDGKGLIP

With `COc1cc(C2=NCCN2)ccc1-c1cn(-c2cccc(C3=NCCN3)c2)nn1` [MMV688407, 4-[4-(4,5-dihydro-1H-imidazol-2-yl)-2-methoxyphenyl]-1-[3-(4,5-dihydro-1H-imidazol-2-yl)phenyl]triazole] the “Screen signal/noise ratio (MST S/N)” value was 8.0.

same assay, conditions: single dose MST screen against LpqY

Point of comparison: `CCN(CC)S(=O)(=O)c1ccc(C(=O)Nc2cc(C)nn2-c2nc(C)c(C)c(=O)[nH]2)cc1` [MMV595321], “Pathogen Box screen signal/noise ratio” value 0.167. Against it:
- OC[C@H]1O[C@@H](n2c3ccc(Cl)cc3c3c(-c4cc5ccccc5o4)ncnc32)C(O)[C@H]1O (some centres unmarked) [MMV688921] — higher, 1.1
- COc1ccc(-c2nc(-c3cccc(NC(=O)Cc4ccc(F)cc4)c3)no2)cc1OC [MMV676571] — higher, 3.5
- O=C(NCc1cc(Cl)cc(Cl)c1)c1c(C(F)(F)F)nc2ccccn12 [MMV687699] — higher, 0.8
- Cc1cccnc1NC(=O)c1cccc(OCc2c(C)noc2C)c1 [MMV688793] — higher, 0.4
- COc1ccc2nc(C)cc(OCC(=O)Nc3ccccc3OC)c2c1 [MMV687188] — higher, 1.7
- CC1(COc2ccc(N3CCC(Oc4ccc(OC(F)(F)F)cc4)CC3)cc2)Cn2cc([N+](=O)[O-])nc2O1 (centres unmarked) [MMV688262] — higher, 0.232
- Cc1ccc(NC(=O)c2cc(S(=O)(=O)NC(C)(C)C)ccc2C)nc1 [MMV020289] — higher, 1.4
- Cc1cc(C)c2cc(C(=O)NC3CCCCCCC3)[nH]c2c1 [MMV687146] — higher, 1.1
- COc1cccc(CC(=O)N2CCC(n3c(C)nc4ccc(F)cc43)CC2)c1 [MMV020081] — lower, 0.152
- CC(C(=O)N1CCCC1)N1CCN(S(=O)(=O)c2ccc(C(C)(C)C)cc2)CC1 (centres unmarked) [MMV020291] — higher, 1.8
- O=C(COc1cccc(F)c1)Nc1nc(-c2ccccn2)cs1 [MMV676409] — higher, 0.449
- O[C@@H](c1cc(C(F)(F)F)nc2c(C(F)(F)F)cccc12)[C@H]1CCCCN1 [MMV000016] — higher, 1.8
- COc1cc(C2=NCCN2)ccc1-c1cn(-c2cccc(C3=NCCN3)c2)nn1 [MMV688407, 4-[4-(4,5-dihydro-1H-imidazol-2-yl)-2-methoxyphenyl]-1-[3-(4,5-dihydro-1H-imidazol-2-yl)phenyl]triazole] — higher, 8.0
- Cc1cc2nc(NC(=O)C(C)(C)C)nc(Cl)c2n1Cc1ccc(Cl)cc1 [MMV688704] — higher, 1.2
- O=C(Nc1nnc(S)s1)c1cc(Br)ccc1Cl [MMV676492] — higher, 0.9
- Cc1cc(C)n2nc(C(=O)Nc3cc(C(F)(F)F)ccc3N3CCOCC3)nc2n1 [MMV019087] — higher, 1.2
- C[C@H](C(N)=O)N1CCCC[C@H]1c1ccc(OCc2cccc(F)c2)cc1 [MMV676269] — higher, 0.212
- Cc1ccc(S(=O)(=O)n2cc(-c3ccnc(N)c3)c3cc(Br)cnc32)cc1 [MMV024114] — higher, 1.1
- C[C@H](c1ccc2c(c1)CCCC2)N(C)c1ncc2c(N)nc(N)nc2n1 [MMV690103] — higher, 1.5
- CCN(CC)S(=O)(=O)c1ccc(Cl)c(C(=O)Nc2ccc3nc(C)sc3c2)c1 [MMV019721] — higher, 1.3
- CC[C@H](CO)NCCN[C@H](CC)CO [MMV687801] — higher, 1.5
- c1ccc(Oc2ccc(-c3cncc(-c4ccc5[nH]ccc5c4)n3)cc2)cc1 [MMV688178] — higher, 1.0
- CNC(=O)CNc1nc(-c2ccccn2)nc2scc(-c3ccccc3)c12 [MMV1029203] — higher, 0.463
- COc1ccc(-c2nn(C(C)C)c3ncnc(N)c23)cc1OC [MMV675993] — higher, 0.75
- Nc1ncc(Br)cc1-c1nc2cc(Cl)cnc2[nH]1 [MMV676358] — higher, 4.8
- CCOc1ccccc1C(=O)Nc1cccc(-c2nc3ncccn3c2C)c1 [MMV019790] — higher, 1.6
- O=C(Nc1nc(-c2ccccn2)cs1)C1CC1c1ccccc1F (centres unmarked) [MMV1028806] — higher, 0.225
- O=C(Nc1ccc(C(F)(F)F)c(C(F)(F)F)c1)c1cc(Cl)ccc1O [MMV687807] — higher, 0.5
- O=[N+]([O-])c1cn2c(n1)OC[C@@H](OCc1ccc(OC(F)(F)F)cc1)C2 [MMV688755] — higher, 0.4
- O=C1O[C@@H](COc2ccon2)CN1c1cc(F)c(C2=CCN(Cc3ccccc3)CC2)c(F)c1 [MMV687813] — higher, 1.0
- O=C(NCCc1ccn(-c2ccccc2)n1)C1CCCCC1 [MMV688795] — lower, 0.0455
- CC1=NN(c2nc3ccccc3s2)C(=O)C1Cc1cccc2ccccc12 (centres unmarked) [MMV676558] — higher, 3.8
- CC(C)(C)C(O)C(Oc1ccc(-c2ccccc2)cc1)n1cncn1 (centres unmarked) [MMV688942] — higher, 0.451
- Cc1nc(-c2ccccn2)nc(N2CCC(Cc3ccccc3)C2)c1Cl (centres unmarked) [MMV659004] — higher, 0.2
- O=C(Nc1nc(-c2ccccn2)cs1)c1cncn1-c1ccccc1 [MMV676512] — higher, 0.561
- CCCCN(CCCC)c1c(C#N)cc(S(=O)(=O)Nc2ccccc2)cc1C#N [MMV688467] — higher, 0.7
- Cc1cc(NC(=O)c2ccc(Oc3ccc(Cl)cc3O)o2)no1 [MMV688955] — higher, 0.4
- CCCCCCCCCCCCCCCCOP(=O)([O-])OCC[N+](C)(C)C [MMV688990] — higher, 0.7
- Cc1cc(O)nc(-n2nc(C)cc2C)n1 [MMV393995] — higher, 0.65
- COC(=O)c1ccc(F)cc1NS(=O)(=O)c1cccc(-c2cnn(Cc3ccccc3)c2)c1 [MMV688350] — higher, 1.5
- Nc1ncnc2[nH]nc(Cc3cccc4ccccc34)c12 [MMV688469] — higher, 0.357
- NCC(c1cccs1)S(=O)(=O)c1ccccc1 (centres unmarked) [MMV688557] — higher, 0.569
- c1cc(C2=NCCN2)cc(-c2cc(-c3ccc(C4=NCCN4)cc3)no2)c1 [MMV688361] — higher, 0.271
- C[C@@H]1[C@H](O)[C@@H](C)/C=C/C=C/C=C/C=C/C=C/C=C/C=C/[C@H](O[C@@H]2O[C@H](C)[C@@H](O)[C@H](N)[C@@H]2O)C[C@@H]2O[C@](O)(C[C@@H](O)C[C@@H](O)[C@H](O)CC[C@@H](O)C[C@@H](O)CC(=O)O[C@H]1C)C[C@H](O)[C@H]2C(=O)O [MMV689000] — higher, 1.1
- CCN(CC)C(=O)N1CCN(C)CC1 [MMV002816] — higher, 1.5
- CCC(Sc1nc2ccccc2o1)C(=O)Nc1nccs1 (centres unmarked) [MMV676383] — higher, 0.8
- Nc1nccc2ccc(-c3ccc4nccn4c3)cc12 [MMV023233] — higher, 0.9
- CNC(=O)c1cc(S(=O)(=O)N2CCN(c3ccccn3)CC2)cs1 [MMV020136] — higher, 0.5
- C[C@]1(O)C[C@@H](c2nc(-c3ccc4ccc(-c5ccccc5)nc4c3)c3c(N)nccn32)C1 [MMV676605] — higher, 0.9
- CCOC(=O)c1c(NC(=O)c2c(F)c(F)c(F)c(F)c2F)sc(C(N)=O)c1C [MMV153413] — higher, 1.3
- O=C(Nc1cnc2ccccc2c1)c1cccc(-n2cnnn2)c1 [MMV084864] — higher, 1.5
- Cc1cc(C)cc(COc2ccc3c(C)c(CCC(=O)O)c(=O)oc3c2C)c1 [MMV676476] — higher, 2.7
- Cc1noc(C)c1C(=O)N1CCCC(c2[nH]c3c(C)cccc3c2-c2ccncc2)C1 (centres unmarked) [MMV020623] — higher, 2.5
- COc1cccc(-c2cc3c(Nc4cccnc4)nccc3[nH]2)c1 [MMV392832] — higher, 2.1
- COc1cccc(OCC(=O)c2ccc(Br)cc2)c1 [MMV676379] — lower, -0.0278
- COc1cc2ncnc(NC3CCN(Cc4ccccc4)CC3)c2cc1OC [MMV006741] — higher, 4.3
- CS(=O)(=O)N1CCC(CCn2nc(Cc3cccc4ccccc34)c3c(N)ncnc32)CC1 [MMV688470] — higher, 0.75
- Clc1cccc(C(c2ccc(CN3CCNCC3)cc2)n2ccnc2)c1 (centres unmarked) [MMV663250] — higher, 0.278
- CCc1nn(C)c(C(=O)NCc2ccc(Oc3ccc(C)cc3)cc2)c1Cl [MMV688934] — higher, 1.5
- CCCCOC(=O)Nc1cc2nc(C3CCCCC3)[nH]c2cc1N1CCCC1 [MMV687730] — higher, 1.3
- O=C([C@@H](c1ccc(Cl)cc1)c1cccnc1)N1CCN(c2ccc(C(F)(F)F)cc2)CC1 [MMV689244] — higher, 1.8
- Brc1cncc(-c2cc(NCCCn3ccnc3)nc(-c3ccccc3)n2)c1 [MMV661713] — higher, 0.5
- COc1ccc(S(=O)(=O)Nc2ccc(CN3CCN(C(=O)c4cccc(C#N)c4)CC3)cc2)cc1 [MMV689029] — lower, 0.156
- COc1nc2ccc(Br)cc2cc1[C@@H](c1ccccc1)[C@@](O)(CCN(C)C)c1cccc2ccccc12 [MMV689758] — higher, 0.444
- c1ccc(-c2cc(N3CCCCC3)c3ccccc3n2)nc1 [MMV560185] — higher, 0.7
- N=C(N)Nc1ccc(-c2ccc(-c3ccc(NC(=N)N)cc3Cl)o2)c(Cl)c1 [MMV688179] — higher, 2.0
- O=C(NCc1ccoc1)N1CCN(Cc2ccc3c(c2)OCO3)CC1 [MMV688553] — higher, 0.8
- CC1CCCCN1C(=O)NCCc1coc(-c2ccc(F)cc2)n1 (centres unmarked) [MMV688797] — higher, 1.4
- CCOc1ccc(OCC(=O)Nc2cc(C)cc(C)c2)cc1 [MMV676470] — higher, 0.2
- FC(F)(F)c1nnc2ccc(Cl)nn12 [MMV069458] — higher, 2.4
- CC(C)(C)c1cc(C(=O)N2CCN(c3nccnc3C#N)CC2)n(Cc2ccccc2)n1 [MMV023949] — higher, 0.7
- Nc1ncnc2c1ncn2C[C@@H](O)[C@@H](O)C(=O)O [MMV689255] — higher, 2.5
- Cc1cnc(CCNC(=O)c2cc(-c3ccc(Cl)cc3)cs2)[nH]1 [MMV676350] — higher, 1.3
- CC(C)n1ncc2c(C(=O)NCC(c3cccs3)N3CCOCC3)cc(-c3ccccc3)nc21 (centres unmarked) [MMV676406] — higher, 2.6
- FC(F)(F)c1cccc(-c2nc3c(NCc4ccncc4)nccc3[nH]2)c1 [MMV032967] — higher, 3.3
